Test results taken from patent US10344019B2 (priority 2010, dated 2019).
pEC50: −log10 of the molar value. Read-outs that look alike come from different tables or passages of the source.

Experiments:
Assay in all cases: microbe, parasite or virus in culture
Assay type in all cases: cell-based
[1] = tested on: HCV 2a JFH-1 Rluc cells (dicistronic genotype 2a JFH-1 replicon, RLuc reporter); details: Hepatitis C virus, genotype 2a JFH-1 replicon, read-out: 2a JFH
How it was run: (§1)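 Renilla luciferase HCV replicon cells: dicistronic 1b Con1, 1a H77 or 2a JFH-1 replicons, or a JFH-1 chimera carrying J6 NS5A (M31 present). Compound in DMSO serial dilutions, 72 h incubation, then lysis and luciferase read. EC50 by non-linear regression.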

[2] = tested on: HCV 4a Rluc cells (NS5A chimeric genotype 1b Con1 replicon with genotype 4a NS5A gene); details: Hepatitis C virus, read-out: 4a
How it was run: (§2)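 Replicon cells stably carrying the listed RLuc-encoding dicistronic replicons were seeded and treated with DMSO serial dilutions of compound (10 mM stocks) diluted into culture medium. After 72 h, cells were lysed and Renilla luciferase activity measured. EC50 was derived by non-linear regression.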

[3] = tested on: HCV 1a RLuc cells (dicistronic genotype 1a H77 replicon, RLuc reporter); details: read-out: 1a
How it was run: as §1

[4] = tested on: HCV 3a RLuc cells (NS5A chimeric genotype 1b Con1 replicon with consensus genotype 3a NS5A gene); details: Hepatitis C virus
How it was run: as §2

[5] = tested on: HCV 1b RLuc cells (dicistronic genotype 1b Con1 replicon, RLuc reporter); details: Hepatitis C virus, read-out: 1b (nM)
How it was run: as §1

[6] = Hepatitis C virus, genotype 1a H77 replicon, RLuc reporter
[7] = read-out: 3a, genotype 3a NS5A chimeric 1b Con1 replicon
[8] = Hepatitis C virus, 72 h, Table 2, genotype 1a H77 replicon, 72 hours
[9] = read-out: 3a, Table 2, genotype 3a NS5A chimeric replicon
[10] = Hepatitis C virus, genotype 1a replicon
[11] = read-out: 3a, genotype 3a replicon

SMILES	pEC50 ([1]; RLuc reporter)	pEC50 [2]	pEC50 [4, 7]	EC50 [5] [nM]	pEC50 ([1]; 72 h, Table 2, 72 hours)	pEC50 [3, 8]	pEC50 [4, 9]	EC50 ([5]; 72 h) [nM]	other results
COC(=O)N[C@H](C(=O)N1CCC[C@H]1c1nc2ccc3cc(-c4ccc5cc(-c6cnc([C@@H]7CCCN7C(=O)[C@H](NC(=O)OC7COC7)c7ccccc7)[nH]6)ccc5c4)ccc3c2[nH]1)C(C)C [Example 289]	9.00 to 12.00	9.00 to 12.00	9.00 to 12.00	0.01					pEC50 [3, 6]: 9.00 to 12.00
COC(=O)N[C@H](C(=O)N1CCC[C@H]1c1nc2ccc3cc(-c4ccc(-c5cnc([C@@H]6[C@H]7CC[C@H](C7)N6C(=O)[C@@H](NC(=O)OC)C6CCOCC6)[nH]5)cc4)ccc3c2[nH]1)C(C)C [Example 62]		9.00 to 12.00			9.00 to 12.00	9.00 to 12.00	9.00 to 12.00	0.034	
COC(=O)N[C@H](C(=O)N1c2ccccc2C[C@H]1c1ncc(-c2ccc(-c3ccc(-c4cnc([C@@H]5Cc6ccccc6N5C(=O)[C@@H](NC(=O)OC)C(C)C)[nH]4)cc3)cc2)[nH]1)C(C)C [Example 267]	< 7.36	9.00 to 12.00	< 8.30	0.045					pEC50 [3, 6]: 7.36 to 9.00
COC(=O)N[C@H](C(=O)N1CCC[C@H]1c1ncc(-c2ccc3c(c2)COc2c-3ccc3cc(-c4cnc([C@@H]5CCCN5C(=O)[C@H](NC(=O)OC)c5ccccc5)[nH]4)ccc23)[nH]1)[C@@H](C)OC [Example 14]		9.00 to 12.00						0.01	pEC50 ([1]; 72 h, Table 1, 72 hours): 9.00 to 12.00; pEC50 ([3]; Hepatitis C virus, 72 h, Table 1, genotype 1a H77 replicon, 72 hours): 9.00 to 12.00; pEC50 ([4]; read-out: 3a, Table 1, genotype 3a NS5A chimeric replicon): 9.00 to 12.00
COC(=O)N[C@H](C(=O)N1CCC[C@H]1c1ncc(-c2ccc3c(c2)OCc2cc(-c4ccc5nc([C@@H]6[C@H]7CC[C@H](C7)N6C(=O)[C@@H](c6ccccc6)N(N)C(=O)OC)[nH]c5c4)ccc2-3)[nH]1)C(C)C [Example 74]		9.00 to 12.00			9.00 to 12.00	9.00 to 12.00	9.00 to 12.00	0.006	
COC(=O)N[C@H](C(=O)N1CCC[C@H]1c1nc2ccc3cc(-c4ccc(-c5cnc([C@@H]6CCCN6C(=O)[C@H](NC(=O)OC)c6ccccc6)[nH]5)cc4C#CC4CC4)ccc3c2[nH]1)C(C)C [Example 351]		9.00 to 12.00		0.008					pEC50 [1]: 9.00 to 12.00; pEC50 [3, 10]: 9.00 to 12.00; pEC50 [4, 11]: 9.00 to 12.00
COC(=O)N[C@H](C(=O)N1CCC[C@H]1c1nc2ccc3cc(-c4ccc5cc(-c6cnc([C@@H]7[C@H]8CC[C@H](C8)N7C(=O)[C@H](NC(=O)OC)c7ccccc7)[nH]6)ccc5c4)ccc3c2[nH]1)C(C)C [Example 39]		9.00 to 12.00			7.36 to 9.00	9.00 to 12.00	8.30 to 9.00	0.009	
COC(=O)N[C@H](C(=O)N1CCC[C@H]1c1ncc(-c2ccc3cc(-c4ccc(-c5cnc([C@@H]6CCCN6C(=O)[C@@H](NC(=O)OCc6ccccc6)C6CCSCC6)[nH]5)cc4)ccc3c2)[nH]1)C(C)C [Example 275]	< 7.36	< 8.30	< 8.30	2.15					pEC50 ([3]; genotype 1a H77 replicon, RLuc reporter): 7.36 to 9.00
COC(=O)N[C@H](C(=O)N1CCC[C@H]1c1nc2ccc3cc(C#Cc4ccc(-c5cnc([C@@H]6CCCN6C(=O)[C@H](NC(=O)OC)c6ccccc6)[nH]5)cc4)ccc3c2[nH]1)[C@@H](C)OC [Example 268]	9.00 to 12.00	9.00 to 12.00	9.00 to 12.00	0.007					pEC50 [3, 6]: 9.00 to 12.00
COC(=O)N[C@H](C(=O)N1CCC[C@H]1c1ncc(-c2ccc3c(c2)CCc2cc(-c4ccc5nc([C@@H]6[C@H]7CC[C@H](C7)N6C(=O)[C@@H](NC(=O)OC)C6CCOCC6)[nH]c5c4)ccc2-3)[nH]1)C1CCOCC1 [Example 77]		9.00 to 12.00			9.00 to 12.00	9.00 to 12.00	9.00 to 12.00	0.029	
COC(=O)N[C@H](C(=O)N1[C@@H]2CC[C@@H](C2)[C@H]1c1nc2c([nH]1)-c1ccc(-c3ccc4c(ccc5nc([C@@H]6CCCN6C(=O)[C@@H](NC(=O)OC)[C@@H](C)OC)[nH]c54)c3)cc1CC2)C(C)C [Example 292]		9.00 to 12.00		0.059					pEC50 [1]: 9.00 to 12.00; pEC50 [3, 10]: 9.00 to 12.00; pEC50 [4, 11]: 9.00 to 12.00
